Laboratory results published in patent publication US4355101A, “Phenylmercaptoazole compounds” (Polaroid Corporation, priority 1981, dated 1982).
Like-named read-outs stand apart in the source and are kept apart here. Values belong to the molecule of their own block, whether it stands above or below them.

Experiments:
[1] = pKa of substituents on the phenyl ring, measured for unblocked phenylmercaptotetrazole compounds; assay type: physicochemical; details: substituent on phenyl ring of unblocked phenylmercaptotetrazole
From the text: Table I lists the pKa of various substituents on the phenyl ring as measured for unblocked phenylmercaptotetrazole compounds.

[2] = Solubility product of the silver salt; assay type: physicochemical; details: for Effect of pH / ionization on solubility of the silver salt: pH 7 vs pH 13.5
[3] = Solubility of the silver salts in the presence of excess amounts of their anions; assay type: physicochemical; details: for Solubility of silver salt (total silver): 4×10^-3 molar in silver
Procedure: The solubilities of the silver salts of PMT and compound VIII in the presence of excess amounts of their anions were measured at pH 7.0 and 13.5. Each solution was 4×10^-3 molar in silver. The results are shown in Table III wherein the solubility data is expressed in μ moles/liter of total silver.

[4] = pH 7; Z.C.H. Tan, Photogr. Sci. Eng. 19, 17 (1975); cited from earlier work
[5] = Molar ratio Compound/Ag 1.25/1, pH 7.0
[6] = Molar ratio Compound/Ag 1.25/1, pH 13.5
[7] = Molar ratio Compound/Ag 1.75/1, pH 7.0
[8] = Molar ratio Compound/Ag 1.75/1, pH 13.5
[9] = Molar ratio Compound/Ag 2.13/1, pH 7.0
[10] = Molar ratio Compound/Ag 2.13/1, pH 13.5
[11] = Molar ratio Compound/Ag 2.5/1, pH 7.0
[12] = Molar ratio Compound/Ag 2.5/1, pH 13.5
[13] = Molar ratio Compound/Ag 4.5/1, pH 7.0
[14] = Molar ratio Compound/Ag 4.5/1, pH 13.5
[15] = Molar ratio Compound/Ag 7.5/1, pH 7.0
[16] = Molar ratio Compound/Ag 7.5/1, pH 13.5

pKa [1]: 9.55 ± 0.1
Structure (SMILES): O=S(=O)(Nc1ccccc1)c1ccc(-n2nnnc2S)cc1

pKa [1]: 11.55 ± 0.1
Structure (SMILES): CNS(=O)(=O)c1ccc(-n2nnnc2S)cc1 [(p) SO2 NHCH3]

pKa [1]: 9.5 ± 0.1
Structure (SMILES): Oc1ccccc1-n1nnnc1S [(o) OH]

Effect of pH / ionization on solubility of the silver salt [2]: relatively unaffected by pH
Ksp of silver salt ([2]; pH 13.5): 4 × 10^-16
Solubility of silver salt (total silver) [3, 5]: < 1 μ moles/liter
Solubility of silver salt (total silver) [3, 6]: 1 μ moles/liter
Solubility of silver salt (total silver) [3, 7]: < 1 μ moles/liter
Solubility of silver salt (total silver) [3, 8]: 2 μ moles/liter
Solubility of silver salt (total silver) [3, 9]: 1 μ moles/liter
Solubility of silver salt (total silver) [3, 10]: 4 μ moles/liter
Solubility of silver salt (total silver) [3, 11]: 3 μ moles/liter
Solubility of silver salt (total silver) [3, 12]: 8 μ moles/liter
Solubility of silver salt (total silver) [3, 13]: 15 μ moles/liter
Solubility of silver salt (total silver) [3, 14]: 18 μ moles/liter
Solubility of silver salt (total silver) [3, 15]: 58 μ moles/liter
Solubility of silver salt (total silver) [3, 16]: 63 μ moles/liter
Structure (SMILES): Sc1nnnn1-c1ccccc1 [PMT, 1-phenyl-5-mercaptotetrazole]
Ksp of silver salt [4]: ~3 × 10^-16

pKa [1]: 11.4
Structure (SMILES): CC(=NO)c1ccc(-n2nnnc2S)cc1 [drawing 14]

pKa [1]: 9.95 ± 0.1
Structure (SMILES): NS(=O)(=O)c1ccc(-n2nnnc2S)cc1 [(p) SO2 NH2, 1-(4-sulfonamidophenyl)-5-mercaptotetrazole]

Ksp of silver salt ([2]; pH 7): ~ 1 × 10^-16
Ksp of silver salt ([2]; pH 13.5): 2 × 10^-15
Solubility of silver salt (total silver) [3, 5]: < 1 μ moles/liter
Solubility of silver salt (total silver) [3, 6]: 19 μ moles/liter
Solubility of silver salt (total silver) [3, 7]: < 1 μ moles/liter
Solubility of silver salt (total silver) [3, 8]: 44 μ moles/liter
Solubility of silver salt (total silver) [3, 9]: < 1 μ moles/liter
Solubility of silver salt (total silver) [3, 10]: 93 μ moles/liter
Solubility of silver salt (total silver) [3, 11]: 2 μ moles/liter
Solubility of silver salt (total silver) [3, 12]: 140 μ moles/liter
Solubility of silver salt (total silver) [3, 13]: 2 μ moles/liter
Solubility of silver salt (total silver) [3, 14]: 320 μ moles/liter
Solubility of silver salt (total silver) [3, 15]: 5 μ moles/liter
Solubility of silver salt (total silver) [3, 16]: 1400 μ moles/liter
Silver solvent action ([3]; high pH): weak to moderate silver solvent
Structure (SMILES): CC(=NO)c1ccc(-n2nnnc2S)cc1 [IX]
Effect of pH / ionization on solubility of the silver salt [2]: increased the solubility of the silver salt of the compound VIII by an order of magnitude
Solubility of silver salt compared with PMT ([3]; neutral solution): even less soluble salt in neutral solution than does PMT

pKa [1]: 8.65 ± 0.1
Structure (SMILES): CS(=O)(=O)Nc1ccc(-n2nnnc2S)cc1 [(p) NHSO2 CH3]

pKa [1]: 10.1 ± 0.1
Structure (SMILES): Oc1ccc(-n2nnnc2S)cc1 [(p) OH, 1-(4-hydroxyphenyl)-5-mercaptotetrazole]

pKa [1]: 8.8 ± 0.1
Structure (SMILES): Cc1ccc(S(=O)(=O)Nc2ccc(-n3nnnc3S)cc2)cc1
